Series [1] has as its target T1, Stimulator of interferon genes protein (Homo sapiens, UniProt Q86WV6). Particulars: filed as agonist.
Target sequence in this assay (Q86WV6 whole entry): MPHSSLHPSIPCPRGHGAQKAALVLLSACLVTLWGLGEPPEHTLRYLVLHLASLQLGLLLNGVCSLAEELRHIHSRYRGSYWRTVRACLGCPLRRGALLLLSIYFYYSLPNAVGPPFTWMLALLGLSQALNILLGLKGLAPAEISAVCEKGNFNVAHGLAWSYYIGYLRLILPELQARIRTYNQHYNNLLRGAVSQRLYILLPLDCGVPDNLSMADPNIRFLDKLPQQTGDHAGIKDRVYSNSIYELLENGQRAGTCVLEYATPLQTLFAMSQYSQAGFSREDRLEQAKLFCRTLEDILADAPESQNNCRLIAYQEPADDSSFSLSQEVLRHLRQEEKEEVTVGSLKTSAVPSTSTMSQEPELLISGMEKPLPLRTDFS
Description: Binding affinity to recombinant human wild type STING (155 to 341 residues) expressed in Escherichia coli BL21 DE3 assessed as thermal stabilization by measuring change in melting temperature by differential scanning fluorimetry
Series [2] concerns the target T1, Stimulator of interferon genes protein. Description: Agonist activity at human STING expressed in human THP-1 cells expressing IRF inducible SEAP reporter construct assessed as increase in interferon production incubated for 24 hrs by QUANTI-Blue colorimetric assay. Type of series: cell-based.
Target sequence in this assay (Q86WV6 whole entry): as above
The nature of series [3]: Chemical stability of compound in 0.9% NaCl buffer assessed as compound degradation at 1 mg/ml incubated for 8 weeks at 40 degreeC by HPLC-UV analysis. Type of series: physicochemical. Particulars: read-out: Drug degradation.
A short description of series [4]: Stability in human plasma assessed as half life at 1 uM by HPLC/MS/MS analysis. Type of series: ADME, cell-free.
Series [5] can be described thus: Elimination half life in BALB/c syngeneic mouse tumor xenografted with mouse 4T1 cells at 0.16 to 1.4 mg/kg,IT and measured upto 25 hrs by HPLC/MS/MS analysis. Type of series: ADME, organism-based, Neoplasm. Particulars: dose 0.16-1.4 mg/kg, read-out: beta t1/2 (converted).
The nature of series [6]: Aqueous solubility of compound in 0.9% NaCl buffer at pH 6.4 incubated for 2 hrs by HPLC-UV analysis. The series is classed as physicochemical.
A further series has as its target hERG (KCNH2) (Homo sapiens, UniProt Q12809). Description: Inhibition of human ERG at 10 uM. The series is classed as toxicity.
Series [7] in a line: Volume of distribution at steady state in C57BL/6 mouse at 10 micromol/kg, iv by HPLC/MS/MS analysis. Type of series: ADME, organism-based. Particulars: in vivo, dose 10 µmol/kg, read-out: Vdss.
Series [8] is described as follows: Aqueous solubility of compound in phosphate buffer at pH 7.6 incubated for 2 hrs by HPLC-UV analysis. The series is classed as physicochemical.
Series [9] can be described thus: MRT in C57BL/6 mouse at 10 micromol/kg, iv by HPLC/MS/MS analysis. The series is classed as ADME, organism-based. Particulars: in vivo, dose 10 µmol/kg.
A short description of series [10]: Stability in mouse plasma assessed as half life at 1 uM by HPLC/MS/MS analysis. Type of series: ADME, cell-free.
Series [11] is described as follows: Clearance in C57BL/6 mouse plasma assessed as hepatic blood flow at 10 micromol/kg, iv by HPLC/MS/MS analysis. The series is classed as ADME, organism-based. Particulars: in vivo, at 10 µmol/kg.
Series [12] can be described thus: Chemical stability of compound in phosphate buffer assessed as compound degradation at 1 mg/ml incubated for 8 weeks at 40 degreeC by HPLC-UV analysis. Type of series: physicochemical. Particulars: read-out: Drug degradation.
Series [13] can be described thus: Protein binding in mouse plasma assessed as unbound fraction at 3 uM incubated for 2 hrs by equilibrium dialysis based HPLC/MS/MS analysis. Type of series: ADME, cell-free. (In equilibrium dialysis free small molecules cross a membrane that holds back macromolecules.)
The nature of series [14]: Protein binding in human plasma assessed as unbound fraction at 3 uM incubated for 2 hrs by equilibrium dialysis based HPLC/MS/MS analysis. The series is classed as ADME, cell-free.
In series [15] the target is T1, Stimulator of interferon genes protein. As to the kind of experiment: Agonist activity at human wild type STING overexpressed in STING knockout human THP1-Blue ISG cells expressing IRF inducible SEAP reporter construct assessed as increase in interferon production by measuring SEAP activity incubated for 24 hrs by Fingerprinting based QUANTI-Blue colorimetric assay. The series is classed as cell-based.
Target sequence in this assay (Q86WV6 whole entry): as above

For series [16] the target is unchanged. Description: Agonist activity at human STING AQ variant overexpressed in STING knockout human THP1-Blue ISG cells expressing IRF inducible SEAP reporter construct assessed as increase in interferon production by measuring SEAP activity incubated for 24 hrs by Fingerprinting based QUANTI-Blue colorimetric assay. The series is classed as cell-based.
Target sequence in this assay (Q86WV6 whole entry, looked up, change not shown): as the sequence (Q86WV6 whole entry) above
The target is the same in series [17]. Description: Agonist activity at human STING Q variant overexpressed in STING knockout human THP1-Blue ISG cells expressing IRF inducible SEAP reporter construct assessed as increase in interferon production by measuring SEAP activity incubated for 24 hrs by Fingerprinting based QUANTI-Blue colorimetric assay. The series is classed as cell-based.
Target sequence in this assay (Q86WV6 whole entry, looked up, change not shown): as the sequence (Q86WV6 whole entry) above
For series [18] the target is unchanged. As to the kind of experiment: Agonist activity at human STING in STING knockout human THP1-Blue ISG cells expressing IRF inducible SEAP reporter construct assessed as increase in interferon production by measuring SEAP activity incubated for 24 hrs by Fingerprinting based QUANTI-Blue colorimetric assay. Type of series: cell-based.
Target sequence in this assay (Q86WV6 whole entry): as above
Series [19] shares this target. Description: Agonist activity at human STING HAQ variant overexpressed in STING knockout human THP1-Blue ISG cells expressing IRF inducible SEAP reporter construct assessed as increase in interferon production by measuring SEAP activity incubated for 24 hrs by Fingerprinting based QUANTI-Blue colorimetric assay. Type of series: cell-based.
Target sequence in this assay (Q86WV6 whole entry, looked up, change not shown): as the sequence (Q86WV6 whole entry) above
For series [20] the target is unchanged. Description: Agonist activity at human STING REF variant overexpressed in STING knockout human THP1-Blue ISG cells expressing IRF inducible SEAP reporter construct assessed as increase in interferon production by measuring SEAP activity incubated for 24 hrs by Fingerprinting based QUANTI-Blue colorimetric assay. Type of series: cell-based.
Target sequence in this assay (Q86WV6 whole entry, looked up, change not shown): as the sequence (Q86WV6 whole entry) above
Series [21] deals with T2, Stimulator of interferon genes protein (Mus musculus) (UniProt Q3TBT3).
T2 sequence (whole entry): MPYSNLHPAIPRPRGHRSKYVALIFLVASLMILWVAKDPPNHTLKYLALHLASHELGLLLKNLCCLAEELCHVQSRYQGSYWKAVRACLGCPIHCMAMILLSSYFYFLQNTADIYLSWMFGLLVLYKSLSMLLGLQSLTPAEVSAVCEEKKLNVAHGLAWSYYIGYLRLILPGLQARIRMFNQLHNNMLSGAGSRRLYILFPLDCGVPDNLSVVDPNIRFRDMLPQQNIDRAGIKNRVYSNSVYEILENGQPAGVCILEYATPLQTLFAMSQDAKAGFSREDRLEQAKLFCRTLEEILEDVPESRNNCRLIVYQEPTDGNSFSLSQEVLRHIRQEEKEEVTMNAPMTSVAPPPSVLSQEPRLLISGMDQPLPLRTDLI
Particulars: filed as agonist.
Description: Binding affinity to recombinant mouse STING assessed as change in melting temperature by differential scanning fluorimetry

Series [22] can be described thus: MRT in C57BL/6 mouse at 1 micromol/kg, iv by HPLC/MS/MS analysis. Type of series: ADME, organism-based. Particulars: in vivo, dose 1 µmol/kg.
The nature of series [23]: Volume of distribution at steady state in C57BL/6 mouse at 1 micromol/kg, iv by HPLC/MS/MS analysis. Type of series: ADME, organism-based. Particulars: in vivo, dose 1 µmol/kg, read-out: Vdss.
Series [24] in a line: Clearance in C57BL/6 mouse plasma assessed as hepatic blood flow at 1 micromol/kg, iv by HPLC/MS/MS analysis. The series is classed as ADME, organism-based. Particulars: in vivo, at 1 µmol/kg.

SMILES strings stand for the structures.

hERG (KCNH2), sequence (Q12809 whole entry): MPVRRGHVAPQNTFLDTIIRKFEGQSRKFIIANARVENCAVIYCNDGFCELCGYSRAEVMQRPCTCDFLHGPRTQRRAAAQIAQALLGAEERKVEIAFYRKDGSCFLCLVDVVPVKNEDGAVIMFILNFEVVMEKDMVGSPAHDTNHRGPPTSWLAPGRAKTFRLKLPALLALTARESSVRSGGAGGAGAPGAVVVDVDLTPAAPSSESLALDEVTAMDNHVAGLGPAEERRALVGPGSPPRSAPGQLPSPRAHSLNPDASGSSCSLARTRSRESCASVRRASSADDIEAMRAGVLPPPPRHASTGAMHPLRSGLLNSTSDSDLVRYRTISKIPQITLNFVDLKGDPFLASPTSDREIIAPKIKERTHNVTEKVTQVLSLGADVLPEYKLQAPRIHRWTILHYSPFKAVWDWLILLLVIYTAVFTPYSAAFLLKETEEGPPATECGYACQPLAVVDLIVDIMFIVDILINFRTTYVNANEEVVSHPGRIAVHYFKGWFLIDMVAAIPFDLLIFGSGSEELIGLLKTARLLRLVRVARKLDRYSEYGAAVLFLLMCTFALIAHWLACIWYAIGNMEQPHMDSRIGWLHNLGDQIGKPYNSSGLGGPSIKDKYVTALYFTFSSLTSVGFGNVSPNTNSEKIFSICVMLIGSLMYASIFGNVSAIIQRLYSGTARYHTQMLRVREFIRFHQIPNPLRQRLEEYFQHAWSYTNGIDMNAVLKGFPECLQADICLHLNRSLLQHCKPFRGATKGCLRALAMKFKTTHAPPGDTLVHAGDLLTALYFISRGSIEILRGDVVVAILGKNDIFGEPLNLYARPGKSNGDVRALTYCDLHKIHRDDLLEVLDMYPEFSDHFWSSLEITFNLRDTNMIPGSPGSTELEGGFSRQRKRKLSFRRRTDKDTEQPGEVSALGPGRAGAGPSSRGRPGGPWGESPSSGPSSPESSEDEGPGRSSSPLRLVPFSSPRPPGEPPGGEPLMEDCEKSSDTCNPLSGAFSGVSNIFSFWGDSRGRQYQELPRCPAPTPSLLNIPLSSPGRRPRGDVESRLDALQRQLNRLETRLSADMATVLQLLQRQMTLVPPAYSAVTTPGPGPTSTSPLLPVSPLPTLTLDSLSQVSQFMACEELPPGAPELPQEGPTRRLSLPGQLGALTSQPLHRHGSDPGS

Compound `Nc1ncnc2c1ncn2[C@@H]1CO[C@@H]2O[P@@](=O)(S)O[C@@H]3[C@H](O)[C@@H](CO[P@@](=O)(S)O[C@H]2[C@H]1O)O[C@H]3n1cnc2c(=O)[nH]ncc21` had a deltaTm in series [1] of 1.75 K. The 50% effective concentration (EC50) (in general, the midpoint of the concentration-response curve) in series [2] is above 100000 nM.
With `O=c1[nH]ncc2c1ncn2[C@@H]1O[C@@H]2CO[P@@](=O)(S)O[C@H]3[C@@H](O)[C@H](n4cnc5ccccc54)O[C@@H]3CO[P@@](=O)(S)O[C@@H]1[C@@H]2O`, the deltaTm in series [1] was 3.6 K. The EC50 in series [2] was above 100000 nM.
Consider `Nc1ncnc2c1ncn2[C@@H]1O[C@@H]2CO[P@@](=O)(S)O[C@@H]3[C@H](O)[C@@H](CO[P@@](=O)(S)O[C@H]2[C@H]1F)O[C@H]3n1cnc2c(=O)[nH]ncc21`, for which the degraded at 1344 h, 1 mg/ml in [3] and in [12] was above 0.5% throughout. Besides, the half-life at 1 µM in series [4] and in series [10] was above 2.17 h throughout. Also, in series [5], the half-life is 7 h. The solubility at 2 h in series [6] and in series [8] was above 10000 µg/mL each time. In addition, the inhibition (in general, the relative decrease from the control value, in per cent) at 10 µM on hERG (KCNH2) came out at 1%. The Vd in series [7] was found to be 2.2 L/kg. The mean residence time (MRT) – broadly, a mean duration of stay, worked out from the concentration-time curve – in series [9] was determined as 0.53 h. The QH in [11] was determined as 78%. Also, the fraction unbound (as a rule, the share of the substance not bound to proteins or other matrix) at 2 h, 3 µM in series [13] was 0.77; in series [14] it was 0.74.
For `Nc1ncnc2c1ncn2[C@@H]1O[C@@H]2CO[P@@](=O)(S)O[C@@H]3[C@H](O)[C@@H](CO[P@@](=O)(S)O[C@H]2[C@H]1F)O[C@H]3n1cnc2c(=O)[nH]nnc21`, the EC50 in series [15] was 580 nM; in [16], 610 nM; in series [17], 1880 nM; in [18] it was above 50000 nM; in [19] it was 580 nM; in series [20], 6010 nM. In addition, the concentration for a half-maximal effect (EC50) in [2] was found to be 160 nM. This compound also gave a deltaTm in [1] of 23.9 K.
In turn, `Nc1ncnc2c1ncn2[C@@H]1O[C@@H]2CO[P@@](=O)(S)O[C@@H]3[C@H](O)[C@@H](CO[P@@](=O)(S)O[C@H]2[C@H]1O)O[C@H]3n1cnc2c(N)ncnc21` showed a deltaTm in series [21] of 13.5 K. At hERG (KCNH2), this compound came in with an inhibition at 10 µM of 0.4%. In addition, in series [22], the mean residence time MRT was found to be 7.2 min. For the same compound, the Vd in series [23] was 0.8 L/kg. In [10], the half-life at 1 µM was above 2.17 h. Also, the QH in series [24] was found to be 120%. Moreover, the fraction unbound at 2 h, 3 µM in series [13] is 0.32.
Turning to `CO[C@@H]1[C@@H]2O[P@](=O)(S)OC[C@H]3O[C@@H](n4cnc5c(=O)[nH]ncc54)[C@H](O[P@](=O)(S)OC[C@H]2O[C@H]1n1cnc2c(N)ncnc21)[C@@H]3O`, the deltaTm in series [1] amounted to 3.7 K. Also, the concentration giving a half-maximal response (EC50) in series [2] was above 100000 nM.
Regarding `O=c1[nH]ncc2c1ncn2[C@@H]1O[C@@H]2CO[P@@](=O)(S)O[C@H]3[C@@H](O)[C@H](n4cnc5cncnc54)O[C@@H]3CO[P@@](=O)(S)O[C@@H]1[C@@H]2O`, the EC50 was 1950 nM in series [15]; 1670 nM in series [16]; 22500 nM in series [17]; above 50000 nM in series [18]; 2060 nM in series [19]; above 50000 nM in series [20]. In series [2], the EC50 was 230 nM. For the same compound, the deltaTm in [1] turned out to be 13.9 K.
Regarding `Nc1ncnc2c1ncn2[C@@H]1O[C@@H]2CO[P@@](=O)(S)O[C@@H]3[C@H](O)[C@@H](CO[P@@](=O)(S)O[C@H]2[C@H]1F)O[C@H]3c1cnn2c(=O)[nH]ncc12`, the half-maximal effective concentration (EC50) in series [15] was 830 nM; in [16], 680 nM; in [17] it was 3380 nM; in series [18], above 50000 nM; in [19], 1040 nM; in series [20], 24300 nM. The EC50 in series [2] stood at 140 nM. For the same compound, the deltaTm in [1] is 18 K.
Regarding `Nc1ncnc2c1ncn2[C@@H]1O[C@@]23CO[C@@H]1[C@@H]2O[P@](=O)(S)OC[C@H]1O[C@@H](n2cnc4c(=O)[nH]ncc42)[C@H](O[P@](=O)(S)OC3)[C@@H]1O`, the deltaTm in series [1] turned out to be 17 K. Moreover, the EC50 in [2] was 170 nM.

(Values after ChEMBL document CHEMBL5346967, “Discovery of BI 7446: A Potent Cyclic Dinucleotide STING Agonist with Broad-Spectrum Variant Activity for the Treatment of Cancer” (J Med Chem, 2023).)
